Laboratory results: patent US11707440B2 (priority 2017, dated 2023)

Key:
[1] = test system: subjects with MDD at imminent risk for suicide; assay: Beck Hopelessness Scale (BHS), […]2001; assay type: in vivo, human; details: for BHS total score change, Diff. of LS Means (SE) minus placebo: ANCOVA LOCF
Excerpt: The BHS is a self-reported measure to assess one's level of negative expectations or pessimism regarding the future. It consists of 20 true-false items that examine the respondent's attitude over the past week by either endorsing a pessimistic statement or denying an optimistic statement. For every statement, each response is assigned a score of 0 or 1. The total BHS score is a sum of item responses and ranges from 0 to 20, with a higher score representing a higher level of hopelessness.

[2] = test system: subjects with MDD at imminent risk for suicide; details: esketamine 84 mg
Procedure: The CADSS was measured prior to the start of each dose, at 40 minutes. 2 hours, and 4 hours postdose.

[3] = test system: subjects with MDD at imminent risk for suicide; assay type: in vivo, human; details: esketamine 84 mg
Procedure: Transient blood pressure increases peaked for the esketamine group at approximately 40 minutes post dose with the maximum mean increases (across all dosing days) in systolic BP being 8.7 in the placebo group and 16.7 in the esketamine 84 mg group. The maximum mean increases (across all dosing days) in diastolic BP were 7.6 in the placebo group and 11.9 in the esketamine 84 mg group. […] See, FIGS. 46 and 47.

subjects with TRD = details: human, in vivo, other: intranasal
Procedure: FIGS. 53 and 54 present means for blood pressure over time by treatment group in the maintenance phase.
Transient blood pressure increases peaked for the esketamine group at approximately 40 minutes post dose and returned closer to predose levels by 1.5 hours post dose.

[4] = test system: patients with treatment-resistant depression (TRD); assay: CGI-S, Example 7; assay type: in vivo, human
Procedure: Overall illness severity was assessed on the Clinical Global Impression of Severity (CGI-S) scale (Guy, “ECDEU Assessment Manual for Psychopharmacology-Revised (DHEW Publ No ADM 76-338)”, Rockville, Md.: U.S. Department of Health, Education, and Welfare, Public Health Service, Alcohol, Drug Abuse, and Mental Health Administration, NIMH Psychopharmacology Research Branch, Division of Extramural Research Programs; 1976, pp 218-222). Participants assessed their severity of anxiety on the Generalized Anxiety Disorder 7-item (GADS-7) Scale (See, Tables 157 and 15). See, Spitzer, “A brief measure for assessing generalized anxiety disorder—the GAD-7”, Arch. Intern. Med., 2006, 166(10):1092-1097.

[5] = test system: patients with treatment-resistant depression (TRD); assay: Blood pressure and heart rate, Example 7; assay type: in vivo, human
Procedure: Adverse events were monitored throughout the study. Other safety assessments (i.e., laboratory tests, vital signs, physical examination) were performed at pre-specified time points. Vital signs, the Clinician Administered Dissociative States Scale (CADSS; Bremner, “Measurement of dissociative states with the clinician-administered dissociative states scale (CADSS)”, J. Traumatic Stress, 1998, 11(1):125-136), and the 4-item positive symptom subscale from the Brief Psychiatric Rating Scale (BPRS; Overall, “The Brief Psychiatric Rating Scale. Psychological Reports”, 1962, 10:799-812) were assessed pre-dose, at 40 minutes, and 2 hours post-dose.

[6] = test system: elderly subjects with TRD; details: US patients aged ≥65 years
[7] = Day 1(DB): 4H, LOCF, ITT analysis set
[8] = End Point(DB), LOCF, ITT analysis set
[9] = in most cases at 10 or 40 minutes post-dose

Q: For `CN[C@]1(c2ccccc2Cl)CCCCC1=O` [Esketamine 84 mg], which “BHS total score, Median (Range)” value ([1]; Baseline(DB), predose Day 1, ITT analysis set) is on record?
A: 17.0 (9; 20)

Q: What about the “BHS total score change, Diff. of LS Means (SE) minus placebo” value ([1]; Day 1(DB): 4H) of the same compound?
A: −1.5 (1.47)

Q: What about the “BHS total score change from baseline, Mean (SD)” value [1, 7] of the same compound?
A: −4.1 (5.63)

Q: What about the “BHS total score change from baseline, Median (Range)” value [1, 7] of the same compound?
A: −2.0 (−16; 2)

Q: What about the “BHS total score, Median (Range)” value [1, 7] of the same compound?
A: 14.0 (0; 20)

Q: What about the “BHS total score change, Diff. of LS Means (SE) minus placebo” value ([1]; End Point(DB)) of the same compound?
A: −2.3 (1.66)

Q: What about the “BHS total score change from baseline, Mean (SD)” value [1, 8] of the same compound?
A: −10.3 (5.51)

Q: And the “BHS total score change from baseline, Median (Range)” value [1, 8]?
A: −11.0 (−19; 0)

Q: What about the “BHS total score, Mean (SD)” value [1, 8] of the same compound?
A: 6.2 (5.96)

Q: What about the “BHS total score, Median (Range)” value [1, 8] of the same compound?
A: 4.0 (0; 20)

Q: For `CN[C@]1(c2ccccc2Cl)CCCCC1=O` [esketamine, (S)-2-(2-chlorophenyl)-2-(methylamino)cyclohexanone], which “Time to resolution of dissociative symptoms (CADSS)” value [2] is on record?
A: ≤ 2 h

Q: What about the “Maximum mean increase in diastolic BP (across all dosing days)” value [3] of the same compound?
A: 11.9

Q: And the “Maximum mean increase in systolic BP (across all dosing days)” value [3]?
A: 16.7

Q: What about the “Time of return of blood pressure to normal range” value [3] of the same compound?
A: ≤ 2 hours post dose

Q: And the “Time of peak of transient blood pressure increases” value (subjects with TRD)?
A: approximately 40 minutes post dose

Q: What about the “Time of return of blood pressure closer to predose levels” value (subjects with TRD) of the same compound?
A: ≤ 1.5 hours post dose

Q: What about the “CGI-S Median Change” value ([4]; 28 mg, Period 1, first day to day 8) of the same compound?
A: −1.0

Q: What about the “CGI-S Median” value ([4]; 28 mg, Period 1 end point) of the same compound?
A: 4.0

Q: What about the “CGI-S Median Change” value ([4]; 28 mg, Period 2, first day to day 8 of period) of the same compound?
A: −1.0

Q: And the “CGI-S Median” value ([4]; 28 mg, Period 2 end point)?
A: 4.0

Q: And the “CGI-S Median Change” value ([4]; 56 mg, Period 1, first day to day 8)?
A: −1.0

Q: What about the “CGI-S Median” value ([4]; 56 mg, Period 1 end point) of the same compound?
A: 4.0

Q: And the “CGI-S Median Change” value ([4]; 56 mg, Period 2, first day to day 8 of period)?
A: −1.0

Q: And the “CGI-S Median” value ([4]; 56 mg, Period 2 endpoint)?
A: 5.0

Q: And the “CGI-S Median Change” value ([4]; 84 mg, Period 1, first day to day 8)?
A: −0.5

Q: What about the “CGI-S Median” value ([4]; 84 mg, Period 1 end point) of the same compound?
A: 4.0

Q: And the “CGI-S Median Change” value ([4]; 84 mg, Period 2, first day to day 8 of period)?
A: −1.0

Q: And the “CGI-S Median” value ([4]; 84 mg, Period 2 endpoint)?
A: 4.0

Q: What about the “Diastolic blood pressure, maximum mean change” value ([5]; dosing days) of the same compound?
A: 10.3 mmHg

Q: What about the “Heart rate, maximum mean change” value ([5]; dosing days) of the same compound?
A: 9.4 bpm

Q: What about the “Systolic blood pressure, maximum mean change” value ([5]; dosing days) of the same compound?
A: 19.0 mmHg

Q: What about the “Time of return of elevated blood pressure to the normal range” value ([5]; human, in vivo, other: intranasal) of the same compound?
A: ≤ 2 hours post-dose

Q: What about the “Maximum diastolic blood pressure value” [5, 9] of the same compound?
A: 115 mmHg

Q: And the “Maximum systolic blood pressure value” [5, 9]?
A: 199 mmHg

Q: What about the “Patients who withdrew the nasal spray” value [6] of the same compound?
A: 2 patients
